Reference: the supplement of paper PMC10307832

Assays:
Experiment in all cases: relative viability (nuclei count vs DMSO), 5 days (fraction); higher = more cells survive
Dovitinib + Alpelisib = compound: CN1CCN(c2ccc3nc(-c4c(N)c5c(F)cccc5[nH]c4=O)[nH]c3c2)CC1 [Dovitinib] + Cc1nc(NC(=O)N2CCC[C@H]2C(N)=O)sc1-c1ccnc(C(C)(C)C(F)(F)F)c1 [Alpelisib] (partner 2 µM)
In short: (§1)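 Cells from lung cancer lines were seeded into 1536-well plates and, one day later, dosed by pin tool. Treatments were either a single drug or a fixed dose of an anchor drug with five library-drug doses (not always all listed) in √10 steps. After 5 days, nuclei were stained in a one-step fixation (final 0.05% Triton X-100, 1% formaldehyde, 1 ug/ml Hoechst) and counted on 4× images, and relative viability is the treated-to-vehicle nuclei ratio, as the median of duplicate plates.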

Dovitinib + Tozasertib = compound: CN1CCN(c2ccc3nc(-c4c(N)c5c(F)cccc5[nH]c4=O)[nH]c3c2)CC1 [Dovitinib] + Cc1cc(Nc2cc(N3CCN(C)CC3)nc(Sc3ccc(NC(=O)C4CC4)cc3)n2)n[nH]1 [Tozasertib] (partner 0.1 µM)
In short: as §1

Dovitinib + Dasatinib = compound: CN1CCN(c2ccc3nc(-c4c(N)c5c(F)cccc5[nH]c4=O)[nH]c3c2)CC1 [Dovitinib] + Cc1nc(Nc2ncc(C(=O)Nc3c(C)cccc3Cl)s2)cc(N2CCN(CCO)CC2)n1 [Dasatinib] (partner 0.075 µM)
In short: as §1

Dovitinib + Luminespib = compound: CN1CCN(c2ccc3nc(-c4c(N)c5c(F)cccc5[nH]c4=O)[nH]c3c2)CC1 [Dovitinib] + CCNC(=O)c1noc(-c2cc(C(C)C)c(O)cc2O)c1-c1ccc(CN2CCOCC2)cc1 [Luminespib] (partner 0.01 µM)
In short: as §1

Row | Cell Line | relative viability (Dovitinib + Alpelisib; first compound 0.02 µM) | relative viability (Dovitinib + Alpelisib; first compound 0.06325 µM) | relative viability (Dovitinib + Alpelisib; first compound 0.2 µM) | relative viability (Dovitinib + Alpelisib; first compound 0.6325 µM) | relative viability (Dovitinib + Alpelisib; first compound 2 µM) | relative viability (Dovitinib + Tozasertib; first compound 0.02 µM) | relative viability (Dovitinib + Tozasertib; first compound 0.06325 µM) | relative viability (Dovitinib + Tozasertib; first compound 0.2 µM) | relative viability (Dovitinib + Tozasertib; first compound 0.6325 µM) | relative viability (Dovitinib + Tozasertib; first compound 2 µM) | relative viability (Dovitinib + Dasatinib; first compound 0.02 µM) | relative viability (Dovitinib + Dasatinib; first compound 0.06325 µM) | relative viability (Dovitinib + Dasatinib; first compound 0.2 µM) | relative viability (Dovitinib + Dasatinib; first compound 0.6325 µM) | relative viability (Dovitinib + Dasatinib; first compound 2 µM) | relative viability (Dovitinib + Luminespib; first compound 0.02 µM) | relative viability (Dovitinib + Luminespib; first compound 0.06325 µM) | relative viability (Dovitinib + Luminespib; first compound 0.2 µM) | relative viability (Dovitinib + Luminespib; first compound 0.6325 µM) | relative viability (Dovitinib + Luminespib; first compound 2 µM)
1 | PC-3 [JPC-3] | 1.03 | 1.01 | 1.02 | 1.09 | 0.909 | 0.838 | 0.884 | 0.892 | 0.889 | 0.83 | 1.03 | 0.999 | 0.967 | 1 | 0.986 | 0.681 | 0.695 | 0.722 | 0.782 | 0.71
2 | PC-14 | 0.805 | 1.03 | 0.966 | 0.946 | 0.883 | 0.542 | 0.649 | 0.684 | 0.644 | 0.643 | 0.257 | 0.273 | 0.238 | 0.3 | 0.331 | 0.147 | 0.158 | 0.15 | 0.17 | 0.16
3 | RERF-LC-KJ | 0.794 | 0.825 | 0.852 | 0.822 | 0.87 | 0.556 | 0.369 | 0.516 | 0.518 | 0.511 | 0.842 | 0.842 | 0.998 | 0.765 | 0.915 | 1.32 | 1.25 | 1.4 | 1.19 | 1.47
4 | SK-LU-1 | 0.928 | 0.946 | 0.951 | 0.805 | 1.16 | 0.305 | 0.375 | 0.33 | 0.325 | 0.409 | 0.167 | 0.176 | 0.21 | 0.185 | 0.19 | 0.203 | 0.19 | 0.204 | 0.18 | 0.198
5 | SK-MES-1 | 0.852 | 0.89 | 0.907 | 0.936 | 0.971 | 0.861 | 0.934 | 0.893 | 0.835 | 0.983 | 0.349 | 0.426 | 0.417 | 0.414 | 0.477 | 0.653 | 0.949 | 0.785 | 0.661 | 0.887
6 | SW 1573 | 0.785 | 0.798 | 0.703 | 0.657 | 0.753 | 0.183 | 0.175 | 0.163 | 0.144 | 0.164 | 0.461 | 0.502 | 0.513 | 0.409 | 0.651 | 0.264 | 0.214 | 0.275 | 0.525 | 0.29
7 | UMC-11 | 0.958 | 0.941 | 0.892 | 0.82 | 0.961 | 0.213 | 0.201 | 0.203 | 0.199 | 0.22 | 0.423 | 0.481 | 0.492 | 0.493 | 0.492 | 0.964 | 1.03 | 0.979 | 1 | 0.996
